Data as given in patent US20090275099A1 (priority 2004, published 2009).
Entries after “also recorded” stand apart in the source; their conditions may differ. Like-named read-outs stand apart in the source and are kept apart here.

Assays:
F1F0-ATPase [1] = target: F1F0-ATPase (Homo sapiens, UniProt P05496+P48047); conditions: read-out: IC50 for oligomycin; cited from earlier work
F1F0-ATPase [2] = target: F1F0-ATPase (Bos taurus, UniProt P13621+P32876); test: off-rate measurements, recovery of ATP synthesis of SMPs after dilution; assay type: biochemical, bovine
Method: Inhibition of Na,K-ATPases with oligomycin is time-dependent and results from a slow rate of dissociation from the enzyme (0.05 s^−1) (see, e.g., Esmann, M. (1991) Biochim. Biophys. Acta 1064, 31-36; herein incorporated by reference in its entirety). Since time-dependent inhibition can have profound effects on the function of the F1F0-ATPase, the off-rate of Bz-423 and oligomycin during ATP synthesis was examined. […] Inhibited SMP suspensions were diluted into buffer and activity was measured over time. Enzymatic activity of the SMPs incubated with Bz-423 had recovered to 90% of control at 10 s, indicating rapid dissociation (see, FIG. 18). In contrast, the activity of the enzyme incubated with oligomycin was only 54% of the uninhibited activity at 10 s, and increased for several minutes after dilution (see, FIG. 18). The time-dependence of the recovery of activity fit to a single exponential yielding an apparent dissociation rate constant for Bz-423>0.3 s^−1. However, dissociation of oligomycin was complex and a portion of the inhibitor dissociated at least 10-fold slower, consistent with a tight-binding, slow-dissociating inhibitor (see, e.g., Morrison, J. F., and Walsh, C. T. (1988) Adv. Enzymol. Relat. Areas Mol. Biol. 61, 201-301; herein incorporated by reference in its entirety). Presumably, the constraints of a high-affinity inhibitor dissociating from the membrane embedded proton channel presented a significant barrier for dissociation resulting in a slow off-rate.
Off-rate measurements. Rate of inhibition of ATP synthesis was measured as described above with the following changes. A 20 μL aliquot of SMPs (1 mg mL^−1) in synthesis buffer (with 10 mM K2HPO4) was added to each well of a 96-well plate containing 2.5 μL of 100× drug (14 μM Bz-423 and 35 nM oligomycin, final) or DMSO vehicle control. The drug was diluted out by adding 200 μL of synthesis buffer to each well. Substratecoupling mixture (25 μL with 1 mM ADP) was added to each well at the indicated time point and the rate of NADP^+ reduction was monitored over time.

[3] = rodents, two daily doses; cited from earlier work
Na,K-ATPases = conditions: cited from earlier work
[4] = target: T1, mitochondrial F1F0-ATPase (Bos taurus, UniProt P13621+P32876); test: biochemical; parameters: species or system bovine; conditions: for Ki: oligomycin
[5] = target: T1, mitochondrial F1F0-ATPase; test: biochemical; parameters: species or system bovine; conditions: for Ki: oligomycin; remark: listed apart in the source
ATP synthesis = test: cellular ATP synthesis (FIG. 15); assay type: cell-based
Method: The following four compounds were exposed to cells, and ATP synthesis measured: […]

[6] = system: panel of cells in Table 7; test: antiproliferation of Bz-Cl against the panel of cells, 3 d; assay type: cell-based; conditions: after 3 d
Ramos cells [7] = test: cell culture cytotoxicity assays; assay type: cell-based, human
Method: Like most 1,4-benzodiazepines, Bz-423 binds strongly to bovine serum albumin (BSA), which reduces the effective concentration of drug free in solution. For example, in tissue culture media containing 10% (v/v) fetal bovine serum (FBS), ca. 99% of the drug is bound to BSA. Therefore, cell culture cytotoxicity assays are conducted in media with 2% FBS to reduce binding to BSA and increase the free [Bz-423]. Under these conditions, the dose response-curve is quite sharp such that there is a limited concentration range at which Bz-423 is only partly effective. Since some benzodiazepines are known to have anti-proliferative properties, the effect of Bz-423 at concentrations <ED50 were carefully analyzed and observed that in addition to inducing apoptosis, Bz-423 prevented cell growth after 3 d in culture. In these low serum conditions, the cytotoxic and anti-proliferative effects overlapped making it difficult to study each effect independently. […] While higher amounts of drug may also block proliferation, it caused apoptosis well before the effects on proliferation could be observed.
To confirm the decrease in cell number relative to control cells after 3 d of treatment is due to decreased proliferation and not cell death balanced by proliferation, in addition to cell counting, cell divisions were studied. PKH-67 is a fluorescent probe that binds irreversibly to cell membranes and upon cell division is partitioned equally between the daughter cells, making it possible to quantify cell division by flow cytometry. Ramos cells stained with PKH67 and treated with Bz-423 had fewer cell divisions at sub-cytotoxic concentrations which confirmed that the decrease in cell number was due to anti-proliferative affects and not cell death. To determine if Bz-423 induced anti-proliferation was specific to Ramos cells, cell counting and cell cycle experiments were done in other B cell lines and cell lines derived from solid tumors.

human OSCP = target: T2, human OSCP (Homo sapiens, UniProt P48047); test: OSCP binding by quenching of intrinsic protein fluorescence
T2 construct: made in house; host or cells: E. coli
Description: To determine if Bz-423 indeed binds to the OSCP and the affinity of the interaction, human OSCP was overexpressed in E. coli. […] Bz-423 is the only known inhibitor of the ATPase that functions through binding to the OSCP.

[8] = system: ornithine decarboxylase (ODC); test: ODC activity in treated cells (conversion of 3H-ornithine to putrescine); assay type: cell-based, human; conditions: cells treated for 4 h
Method: In these experiments, the conversion of ornithine to putrescine was quantified using ^3H-ornithine. For comparisons, control cells were treated with vehicle control or difluoromethyl ornithine (DFMO), a potent inhibitor of ornithine decarboxylase (like Bz-423, DFMO is a potent anti-proliferative agent). […] The reduction in ODC activity was paralleled by a decrease in ODC protein levels measured under the same conditions.
As described above, Bz-423 induced apoptosis was signaled by an ROS response that arose from MRC complex III as a result of the state 3 to 4 transition. It was next sought to determine if the ROS response, critical for apoptosis, also mediated these effects on ODC. If the ROS was required for the decrease in ODC activity, it would likewise be implicated as potentially part of the anti-proliferative response to Bz-423. To test this, Ramos cells were treated with Bz-423, DFMO, or vehicle control for 4 h. In parallel, a second group of cells was pre-incubated with MnTBAP to limit the ROS and then cultured with Bz-423, DFMO, and vehicle control.

[9] = target: T3, F1F0-ATPase, OSCP subunit (UniProt P48047); test: F1F0-ATPase activity in SMPs reconstituted in the presence or absence of the OSCP; assay type: biochemical, bovine; parameters: not tied in print to the reconstitution assay; conditions: FIG. 19C
T3 sequence (P48047 1-213): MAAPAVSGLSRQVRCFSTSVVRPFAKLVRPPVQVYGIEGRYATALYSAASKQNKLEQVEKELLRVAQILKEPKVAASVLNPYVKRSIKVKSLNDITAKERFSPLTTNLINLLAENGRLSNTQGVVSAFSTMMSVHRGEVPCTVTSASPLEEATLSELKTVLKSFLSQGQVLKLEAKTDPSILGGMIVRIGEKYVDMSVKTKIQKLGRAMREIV
Method: An additional OSCP binding assay was conducted. […] Benzodiazepine derivative compounds that bind the OSCP include, but are not limited to: […]

Jurkat cells [10] = test: early O2− (ROS) response, 1 h; assay type: cell-based
Method: (§1) To detect O2^−, cells are incubated with DHE (10 μM) for 30 min at 37° C. and are analyzed by flow cytometry to measure ethidium fluorescence. Flow analysis of mitochondrial transmembrane potential (ψm) is conducted by labeling cells with DiOC6(3) (20 nM) for 15 min at 37 degrees C. A positive control for disruption of ψm is established using carbonyl cyanide m-chlorophenylhydrazone (CCCP, 50 μM). Caspase activation assays are performed with FAM-VAD-fluoromethylketone. Processing of the substrate is evaluated by flow cytometry.
(§2) Since an early mitochondrial superoxide (O2^−) mediates apoptosis induced by Bz-423, the O2^− response of cells 1 h following incubation with drug was examined, as well as cell death at 24 h, as previously described (see, e.g., Blatt, N. B., et al., 2002 J Clin Invest 110, 1123-1132; incorporated herein by reference in its entirety).

Ramos B cells = test: cell death of Ramos B cells, propidium iodide exclusion by flow cytometry, 24 h; assay type: cell-based, human; conditions: Homo sapiens
Ramos cells [11] = test: early O2− (ROS) response, 1 h; assay type: cell-based, human; conditions: Homo sapiens, Ramos, 1 h; read-out: ROS EC50 (μM), Ramos cells
Method: as §1, §2

Jurkat cells [12] = test: cell death at 24 h; assay type: cell-based
Method: as §2

[13] = synthesis, three-dimensional fit
[14] = hydrolysis, three-dimensional fit
[15] = Jurkat cells, 75 μM PK11195, with or without antioxidant pre-incubation

CC[C@H]1/C=C/C=C/C[C@@H](C)[C@H](O)[C@@](C)(O)C(=O)[C@@H](C)[C@H](O)[C@@H](C)C(=O)[C@@H](C)[C@H](O)[C@@H](C)/C=C/C(=O)O[C@@H]2[C@H](C)[C@H](CC1)O[C@]1(CC[C@H](C)[C@H](C[C@@H](C)O)O1)[C@H]2C [oligomycin, reference compound]
IC50 (F1F0-ATPase [1]): 0.01 µM | slower dissociation of a portion of the inhibitor (F1F0-ATPase [2]): at least 10 fold | reduction of F1F0-ATPase activity at the concentration produced after dilution (F1F0-ATPase [2]; 1.4 μM Bz-423, 3.5 nM oligomycin): 15% | ATP synthesis activity relative to that in the absence of inhibitor (F1F0-ATPase [2]; 14 μM Bz-423 or 35 nM oligomycin): 14% | enzymatic activity recovered after dilution, % of control (F1F0-ATPase [2]; at 10 s after dilution): 54% | LD50 for oligomycin [3]: 0.5 mg/kg | rate of dissociation from the enzyme (Na,K-ATPases): 0.05 s⁻¹ | Ki ([4]; Ki (E), synthesis): 0.0105 ± 0.0009 µM | Ki ([4]; Ki (ES), synthesis): 0.012 ± 0.001 µM | Mechanism of inhibition ([4]; synthesis): mixed inhibitor | nE, cooperativity factor for competitive inhibition constant ([4]; synthesis): 3.6 ± 0.5 | nES, cooperativity factor for uncompetitive inhibition constant ([4]; synthesis): 1.6 ± 0.3 | K∞ [4, 13]: 0.12 ± 0.01 mM | Vmax [4, 13]: 0.089 ± 0.003 µmol/min/mg | Mechanism of inhibition ([5]; hydrolysis): noncompetitive inhibitor; also recorded: Non-competitive | nE, cooperativity factor for competitive inhibition constant ([5]; hydrolysis): 1.1 ± 0.3 | nES, cooperativity factor for uncompetitive inhibition constant ([5]; hydrolysis): 1.2 ± 0.1 | Ki ([5]; hydrolysis, read-out: Ki (E)): 0.011 ± 0.003 µM | Ki ([5]; hydrolysis, read-out: Ki (ES)): 0.013 ± 0.001 µM | K∞ [5, 14]: 0.12 ± 0.02 mM | Vmax [5, 14]: 0.77 ± 0.03 µmol/min/mg

CN1C(=O)C(c2ccccc2)NC(c2ccc(O)cc2)c2cc(Cl)ccc21 (stereo not shown)
inhibition of cellular ATP synthesis (ATP synthesis): did inhibit ATP synthesis

CN1C(=O)C(Cc2ccc3ccccc3c2)N=C(c2ccc(Cl)cc2)c2cc(Cl)ccc21 (stereo not shown) [Bz-Cl]
effect on proliferation compared with Bz-423 [6]: reduced proliferation to a similar extent as Bz-423 | decrease of cytotoxic activity compared to Bz-423 (Ramos cells [7]): ~80% | Kd (human OSCP): ~5 µM | effect on ODC activity [8]: inhibited ODC activity

CCC(C)N(C)C(=O)c1cc2ccccc2c(-c2ccccc2Cl)n1 (stereo not shown) [PK11195]
dependence of F1F0-ATPase inhibition on the OSCP [9]: more potent inhibitor of F1F0-ATPase activity in the presence of the OSCP | EC50 (Jurkat cells [10]; Homo sapiens, Jurkat, 1 h, read-out: ROS EC50 (μM), Jurkat cells): 56 µM | % ROS+ (Jurkat cells [10]; [15]): 67.9 ± 5.0% | EC50 (Ramos B cells; Ramos, 24 h, read-out: Cell death EC50 (μM), Ramos cells): 90 µM | EC50 (Ramos B cells; Ramos B cells, 24 h (Table 6), read-out: EC50 (μM), cell death): > 80 µM | EC50 ([4]; bovine SMPs, read-out: ATPase activity EC50 (μM), Synthesis): 33 µM | EC50 (Ramos cells [11]): 100 µM | EC50 (Jurkat cells [12]; Homo sapiens, Jurkat, 24 h, read-out: Cell death EC50 (μM), Jurkat cells): 75 µM | % Cell death (Jurkat cells [12]; [15]): 85.5 ± 1.7% | inhibition of mitochondrial ATPase activity ([5]; 80 μM): do not significantly inhibit mitochondrial ATPase activity | EC50 ([5]; bovine SMPs, read-out: ATPase activity EC50 (μM), Hydrolysis): 230 µM
